Active and inactive are the calls of the source.
What was measured:
[1] = cytotoxicity in HEK-293T cells, dose response, cytotoxicity control for TCR NF-kB inhibitor project, luminescence, T-cell screen hits (AID 489026); assay type: functional, cell-based;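 further: cells exposed to compound about 14 hours before the viability readout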
[2] = biological target: T1, Histone-lysine N-methyltransferase NSD2 (Homo sapiens, UniProt O96028); assay type: biochemical
T1 sequence (O96028 whole entry): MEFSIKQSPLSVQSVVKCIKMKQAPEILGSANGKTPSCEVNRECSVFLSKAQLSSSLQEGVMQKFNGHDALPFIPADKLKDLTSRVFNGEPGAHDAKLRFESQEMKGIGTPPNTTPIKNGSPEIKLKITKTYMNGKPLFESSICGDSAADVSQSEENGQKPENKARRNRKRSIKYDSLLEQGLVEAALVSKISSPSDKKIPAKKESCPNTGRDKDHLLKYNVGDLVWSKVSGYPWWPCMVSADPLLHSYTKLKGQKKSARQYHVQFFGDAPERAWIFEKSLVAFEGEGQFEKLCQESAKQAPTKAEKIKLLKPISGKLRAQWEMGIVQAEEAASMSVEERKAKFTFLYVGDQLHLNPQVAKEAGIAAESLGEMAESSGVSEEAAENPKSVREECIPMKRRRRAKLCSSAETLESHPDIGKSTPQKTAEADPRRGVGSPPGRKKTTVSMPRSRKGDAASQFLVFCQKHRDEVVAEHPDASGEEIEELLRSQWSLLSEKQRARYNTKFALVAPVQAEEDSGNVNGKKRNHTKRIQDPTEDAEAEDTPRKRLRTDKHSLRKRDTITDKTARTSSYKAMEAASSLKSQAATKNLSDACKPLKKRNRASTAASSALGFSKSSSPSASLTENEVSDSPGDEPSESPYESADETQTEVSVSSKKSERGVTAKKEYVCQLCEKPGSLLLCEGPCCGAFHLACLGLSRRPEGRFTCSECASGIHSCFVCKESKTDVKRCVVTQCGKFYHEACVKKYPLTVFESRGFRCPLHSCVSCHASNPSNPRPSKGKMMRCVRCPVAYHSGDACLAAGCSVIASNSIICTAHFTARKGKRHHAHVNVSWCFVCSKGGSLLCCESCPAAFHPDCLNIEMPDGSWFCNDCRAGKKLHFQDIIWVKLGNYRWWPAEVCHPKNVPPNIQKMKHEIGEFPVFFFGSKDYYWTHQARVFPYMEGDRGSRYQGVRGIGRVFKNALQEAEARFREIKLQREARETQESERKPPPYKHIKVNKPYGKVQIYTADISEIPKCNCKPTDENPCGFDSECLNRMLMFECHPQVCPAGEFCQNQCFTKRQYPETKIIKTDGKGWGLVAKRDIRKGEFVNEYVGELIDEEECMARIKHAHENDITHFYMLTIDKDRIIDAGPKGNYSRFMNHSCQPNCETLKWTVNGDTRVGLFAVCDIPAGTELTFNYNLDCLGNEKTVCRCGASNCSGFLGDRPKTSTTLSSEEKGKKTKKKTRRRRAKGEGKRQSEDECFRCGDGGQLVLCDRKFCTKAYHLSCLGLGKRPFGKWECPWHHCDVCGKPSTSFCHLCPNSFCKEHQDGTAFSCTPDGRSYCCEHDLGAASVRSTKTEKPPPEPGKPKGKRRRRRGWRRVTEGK

[3] = biological target: Induced myeloid leukemia cell differentiation protein Mcl-1 (Homo sapiens, UniProt Q07820); assay type: functional
[4] = growth suppression of PTEN-null colon cells, dose response, cell-based, HCT116 PTEN knockout (AID 1047); assay type: functional;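 further: HCT116 colon tumor cells with PTEN knocked out; cells exposed to compound for 60 hours before readout; potency for loss of cell viability measured by luminescence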
[5] = growth suppression of beta-catenin-knockout colon cells, dose response, cell-based, HCT116, human colon tumor (AID 1045); assay type: functional;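 further: HCT116 colon tumor cells with beta catenin knocked out; cells exposed to compound for 60 hours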
[6] = tested on: H9c2; assay: cells; assay type: functional, cell-based; settings: Rattus norvegicus, H9c2, Myocardium;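 further: confirmatory concentration-response retest of ultra-high-throughput screening hits for modulation of myocardial damage; cell death induced by hydrogen peroxide oxidative stress; compound pretreatment for 60 min then peroxide exposure for 2 h; potency is for protecting the cells against peroxide damage rather than for killing them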
[7] = biological target: Genome polyprotein (dengue virus type 2, UniProt P29990); assay: Dengue-2 NS5 methyltransferase inhibitors, primary screen, biochemical, confirmation dose response (AID 588689); assay type: functional
[8] = biological target: Cytochrome P450 2D6 (Homo sapiens, UniProt P10635);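 further: CYP2D6 member of a cytochrome P450 panel assay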
[9] = biological target: FAD-linked sulfhydryl oxidase ALR (Homo sapiens, UniProt P55789); assay: inhibitors of human ALR sulfhydryl oxidase, dose response, biochemical, H2O2 detection, luminescence, cherry-pick (AID 493248)
[10] = biological target: T2, Galanin receptor type 3 (Homo sapiens, UniProt O60755); assay: Fluorescence-based cell-based primary high throughput dose response assay to identify antagonists of the Galanin Receptor 3 (GalR3).; assay type: functional
T2 sequence (O60755 whole entry): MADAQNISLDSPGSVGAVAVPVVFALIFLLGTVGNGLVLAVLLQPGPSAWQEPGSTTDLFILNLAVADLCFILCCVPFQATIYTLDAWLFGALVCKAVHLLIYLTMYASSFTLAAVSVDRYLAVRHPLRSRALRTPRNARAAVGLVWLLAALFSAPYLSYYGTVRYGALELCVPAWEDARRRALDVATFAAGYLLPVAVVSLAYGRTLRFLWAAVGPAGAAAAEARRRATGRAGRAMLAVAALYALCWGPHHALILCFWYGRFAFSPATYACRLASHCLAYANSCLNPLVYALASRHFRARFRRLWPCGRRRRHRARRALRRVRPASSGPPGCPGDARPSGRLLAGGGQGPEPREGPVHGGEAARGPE

[11] = tested on: INS1; assay: beta cell apoptosis inhibitors, cytokine rescue, dose response, luminescence, retest (AID 449756); assay type: functional, cell-based; settings: Rattus norvegicus;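 further: cell death triggered by IL-1 beta plus TNF-alpha plus IFN-gamma mixture; protective hits raise ATP signal compared with cytokine alone wells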
[12] = cells; assay type: functional, cell-based; settings: HEK-CNG
[13] = off-target signal loss in HeLa-CEM21 co-culture – HeLa F-luc CTL cells, cherry-picked, counter-screen for HIV-1 Env fusion inhibitor project, dose response (AID 652040); assay type: functional, cell-based;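 further: potency for signal decrease marking cytotoxic or nonspecific inhibition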
[14] = inhibitors of HIV Env-driven cell fusion, dose response, cherry-pick (AID 652057); assay type: functional, cell-based
[15] = inhibitors of clade B AD8 Env fusion, dose response, cell-based, cherry-pick (AID 652062); assay type: functional;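 further: luciferase signal from cell-cell fusion driven by HIV-1 clade B AD8 Env; potency is for inhibitors of fusion seen as a drop in luminescence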
[16] = ZM109 Env clade C HIV-1 fusion inhibitors, dose response, HeLa effector, CEM target cells, luciferase, cherry-pick (AID 652058); assay type: functional, cell-based
[17] = control 3'UTR Renilla luciferase suppression, dose response, counter-screen for Shn3 inhibitor project, cell-based, Clone20-Shn3RL, cherry-picked (AID 624133); assay type: functional
[18] = Shn3 3'UTR reporter inhibitors, dose response, cell-based, Clone20 osteoblasts, firefly luciferase, cherry-picked (AID 624132); assay type: functional;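 further: firefly luciferase luminescence from reporter carrying the Shn3 3'UTR in osteoblasts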
[19] = HepG2 cell cytotoxicity, dose response, cytotoxicity control for Shn3 inhibitor project, CellTiter-Glo, cherry-picked (AID 624134); assay type: functional, cell-based
[20] = cytotoxicity toward NIH3T3 fibroblasts, dose response, counter-screen, cell-based, ATP luminescence, mouse fibroblasts (AID 2010); assay type: functional;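 further: cells exposed to compound for about 90 hours before reading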
[21] = inhibitors of intracellular T. cruzi replication, confirmation, NIH3T3 host cells, beta-gal luminescence (AID 2044); assay type: functional, cell-based;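 further: intracellular parasites grown in NIH/3T3 mouse fibroblasts as host cells; luminescent beta-galactosidase reporter signal from transgenic T. cruzi replicating inside host cells; inhibitors lower the luminescence signal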
[22] = MC4R antagonists, dose response, counter-screen for LGR2 antagonist project, cell-based, plate reader, cherry pick (AID 743444); assay type: functional;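 further: transfected HEK 293 cells stimulated with alpha-MSH peptide; potency of inhibitors of the alpha-MSH evoked signal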
[23] = LGR2 antagonists, dose response, cell-based, HEK293, CRE-luciferase reporter, cherry pick, set 2 (AID 743343); assay type: functional;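 further: transfected cells were stimulated with diluted bursicon conditioned medium after compound addition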

Induced myeloid leukemia cell differentiation protein Mcl-1, sequence (Q07820 whole entry): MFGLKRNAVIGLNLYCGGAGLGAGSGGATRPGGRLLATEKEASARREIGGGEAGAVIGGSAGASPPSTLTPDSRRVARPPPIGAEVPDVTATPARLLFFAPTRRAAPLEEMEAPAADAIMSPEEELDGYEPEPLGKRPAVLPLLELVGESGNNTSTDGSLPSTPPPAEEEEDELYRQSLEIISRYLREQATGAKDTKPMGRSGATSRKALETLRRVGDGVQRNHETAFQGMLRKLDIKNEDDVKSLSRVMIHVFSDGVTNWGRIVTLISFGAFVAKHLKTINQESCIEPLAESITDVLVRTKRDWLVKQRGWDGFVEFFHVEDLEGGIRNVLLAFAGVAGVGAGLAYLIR
Genome polyprotein, sequence (P29990 2492-3391 limits assumed): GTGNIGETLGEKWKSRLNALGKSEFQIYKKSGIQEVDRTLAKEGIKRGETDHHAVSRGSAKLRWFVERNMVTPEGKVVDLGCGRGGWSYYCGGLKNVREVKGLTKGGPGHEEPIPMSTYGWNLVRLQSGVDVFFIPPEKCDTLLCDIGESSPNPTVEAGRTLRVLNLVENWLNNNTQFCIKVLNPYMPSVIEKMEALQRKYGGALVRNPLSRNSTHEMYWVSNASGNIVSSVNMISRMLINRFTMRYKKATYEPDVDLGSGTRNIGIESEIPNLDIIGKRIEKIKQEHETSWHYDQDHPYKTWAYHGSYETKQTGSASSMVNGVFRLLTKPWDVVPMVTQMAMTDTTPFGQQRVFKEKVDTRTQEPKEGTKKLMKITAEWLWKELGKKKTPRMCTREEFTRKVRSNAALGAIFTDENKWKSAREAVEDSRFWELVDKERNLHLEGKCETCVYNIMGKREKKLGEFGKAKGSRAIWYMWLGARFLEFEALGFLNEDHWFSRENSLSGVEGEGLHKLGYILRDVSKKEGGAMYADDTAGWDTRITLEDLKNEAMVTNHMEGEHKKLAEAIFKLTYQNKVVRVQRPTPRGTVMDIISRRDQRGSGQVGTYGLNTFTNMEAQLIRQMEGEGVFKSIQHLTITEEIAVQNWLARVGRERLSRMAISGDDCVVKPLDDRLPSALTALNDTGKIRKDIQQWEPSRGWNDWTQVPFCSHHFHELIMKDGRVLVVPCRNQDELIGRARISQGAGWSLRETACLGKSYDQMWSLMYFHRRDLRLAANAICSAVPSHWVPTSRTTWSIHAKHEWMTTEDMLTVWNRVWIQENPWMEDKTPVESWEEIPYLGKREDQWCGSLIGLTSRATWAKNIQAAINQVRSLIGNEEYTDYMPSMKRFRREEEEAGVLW
Cytochrome P450 2D6, sequence (P10635 whole entry): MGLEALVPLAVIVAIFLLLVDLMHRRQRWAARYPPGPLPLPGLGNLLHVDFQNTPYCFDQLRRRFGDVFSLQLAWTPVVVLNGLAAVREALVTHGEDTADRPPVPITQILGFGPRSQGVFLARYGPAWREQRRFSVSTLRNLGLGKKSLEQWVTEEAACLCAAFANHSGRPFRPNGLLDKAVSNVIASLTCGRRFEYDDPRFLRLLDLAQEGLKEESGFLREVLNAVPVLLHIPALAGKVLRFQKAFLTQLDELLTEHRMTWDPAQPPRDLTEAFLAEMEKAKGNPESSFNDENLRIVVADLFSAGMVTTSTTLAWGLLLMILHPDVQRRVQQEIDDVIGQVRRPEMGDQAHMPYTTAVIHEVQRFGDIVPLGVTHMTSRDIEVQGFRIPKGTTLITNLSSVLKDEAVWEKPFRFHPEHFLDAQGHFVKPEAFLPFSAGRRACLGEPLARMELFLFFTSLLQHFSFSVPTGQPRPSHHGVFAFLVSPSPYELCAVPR
FAD-linked sulfhydryl oxidase ALR, sequence (P55789 whole entry): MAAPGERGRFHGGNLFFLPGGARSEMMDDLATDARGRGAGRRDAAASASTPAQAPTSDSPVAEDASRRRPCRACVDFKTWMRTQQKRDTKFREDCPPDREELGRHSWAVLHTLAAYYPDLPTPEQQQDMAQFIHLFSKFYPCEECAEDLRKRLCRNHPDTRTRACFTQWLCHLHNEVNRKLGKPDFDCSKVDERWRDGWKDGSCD

In the case of `Cc1ccc(NC(=O)CSc2nc(-c3ccco3)cc(C(F)(F)F)n2)cc1C`, the IC50 [1] is reported as > 80 µM (inactive).

For `COC(=O)CCCCC1=CCC2C(=O)C=C(O)C2C1` (stereo unspecified), the AC50 [2] was > 20 µM (inactive).

With `CN(C)c1ccc(C(CNC(=O)c2ccccc2Br)c2c[nH]c3ccccc23)cc1` (stereo unspecified) the IC50 [3] was 2.82 µM (not active).

For `Cc1ccc(-c2ccc(/C=C3/NC(=O)NC3=O)o2)cc1[N+](=O)[O-]`, the IC50 [3] was 4.36 µM (active).

In the case of `COC(=O)c1ccc(C(=O)NC(=S)Nc2ccc3nc(SC)sc3c2)cc1`, the EC50 [4] is reported as 5.26 µM (active) and the EC50 [5] is reported as 5.03 µM (active).

For `CC(C(=O)NC1CCCC1)N(Cc1ccco1)C(=O)c1snc(C(=O)NC2CCCC2)c1N` (stereo unspecified), the IC50 [3] was 8.77 µM (not active).

For `Cc1ccc2cc(C#N)c(N3CCN(C(=O)c4cccs4)CC3)nc2c1`, the IC50 [6] was > 79 µM (inactive).

For `CCn1c(SC)nc(=O)c(C(c2ccc(OC)c(O)c2)c2c(O)n(CC)c(SC)nc2=O)c1O`, the IC50 [7] was 50 µM (active).

In the case of `COc1ccc(N2CCC(CNC(=O)Nc3ccc(OC)cc3OC)C2)cc1` (stereo unspecified), the IC50 [3] is reported as 1.14 µM (active), the AC50 [8] is reported as 28.2 µM (inconclusive) and the AC50 [9] is reported as 17.2 µM (active).

For `O=C(Cn1[nH]c(=O)c2ccccc2c1=O)N1CCN(S(=O)(=O)c2ccc(Cl)cc2)CC1`, the IC50 [6] was > 79 µM (inactive).

For `Oc1ccc2c(c1)nc(O)c1ccccc12`, the IC50 [6] was > 79 µM (inactive).

For `Cc1ccc(Oc2nnc(-c3ccccc3)c3ccccc23)cc1`, the EC50 [4] was 75.7 µM (active) and the EC50 [5] was 75.9 µM (active).

With `Cc1c(-c2ccccc2)oc2c(C(=O)OCC(=O)Nc3ccc(C(N)=O)cc3)cccc2c1=O` the IC50 [6] was > 79 µM (inactive).

With `CN1CCN(c2ccc(CNS(=O)(=O)Cc3cccc(C(F)(F)F)c3)cc2)CC1` the IC50 [10] was 2.08 µM (active), the AC50 [11] was 4.36 µM (active) and the EC50 [12] was > 29.9 µM (inactive).

For `O=C(O)CCCN1C(=O)/C(=C\c2ccccc2OCc2ccccc2)SC1=S`, the IC50 [7] was 36.7 µM (active).

For `COc1ccc2nc(O)c(CN(Cc3nnnn3Cc3ccccc3)CC3CCCO3)cc2c1` (stereo unspecified), the AC50 [13] was 7.73 µM (active), the AC50 [14] was 4.18 µM (active) and the IC50 [6] was 16.5 µM (active). For the same molecule, the AC50 [15] was 33.1 µM (active) and the AC50 [16] was 5.31 µM (active).

For `Cc1ccc(O)c(CNc2cccc3cccnc23)c1`, the AC50 [2] was > 20 µM (inactive) and the AC50 [11] was 13.2 µM (active).

For `COc1ccc(C(=O)Nc2ccc3[nH]c(-c4cccc(OC)c4)cc(=O)c3c2)cc1`, the IC50 [1] was > 80 µM (inactive).

In the case of `O=C(O)c1[nH]c2ccccc2c1C(c1cccc(O)c1)c1c(C(=O)O)[nH]c2ccccc12`, the IC50 [7] is reported as 23.2 µM (active).

For `O=C(Nc1cccc(C(F)(F)F)c1)c1sc(Cl)nc1C(F)(F)F`, the IC50 [1] was > 80 µM (inactive), the AC50 [17] was 15.8 µM (active) and the AC50 [18] was 9.06 µM (active). The AC50 [19] was > 70 µM (inactive).

For `CC(C)(C)c1ccc(C(=O)Nc2ccc(Oc3cccnc3)nc2)cc1`, the IC50 [1] was 50.1 µM (inactive), the IC50 [10] was 1.33 µM (active) and the EC50 [12] was > 29.9 µM (inactive).

With `O=C(COC(=O)c1[nH]nc2ccccc12)NCCc1ccc(Cl)cc1` the IC50 [10] was 2.87 µM (active) and the EC50 [12] was > 29.9 µM (inactive).

With `CCOC(=O)NCCc1c(C)nc2c(c(C)nn2C(C)(C)C)c1C` the AC50 [2] was > 20 µM (inactive).

In the case of `COc1ccc(NC(=O)Cc2c(SC)c3ccccc3n2Cc2ccccc2)cc1`, the IC50 [3] is reported as 6.18 µM (not active).

In the case of `COc1ccc(C(=O)Nc2cc(C)nn2-c2nc3ccccc3[nH]2)c(OC)c1`, the EC50 [20] is reported as > 60 µM (not active), the IC50 [6] is reported as 7.52 µM (active) and the EC50 [21] is reported as 2.51 µM (active).

In the case of `Cc1ccc(-c2nc(-c3ccncc3)no2)c(Cl)c1`, the AC50 [22] is reported as 12.5 µM (active) and the AC50 [23] is reported as 10.3 µM (active).
